Assay results published in patent publication US11760889B2, “Unsaturated fatty alcohol derivatives from natural oil metathesis” (priority 2012, dated 2023).
Read-outs that look alike come from different tables or passages of the source.

Legend:
[1] = Surfactant phase behavior study (cross-polarized microscopy); format: physicochemical; conditions: room temperature (20-22° C.)
Procedure: Phase behavior is observed using an Olympus BH-2 cross-polarized microscope at 100-400× and room temperature (20° C. to 22° C.). The inventive monounsaturated sulfates and ethoxylate sulfates are compared with their saturated analogs, and in some cases, commercial surfactants.
Samples are prepared by diluting the most concentrated product gradually with deionized water. When the surfactant concentration approaches a phase transition, the concentration is varied at 2-4% intervals to estimate the phase boundary. The actives level reported in Table 15 for each phase boundary is within ±5% of the true boundary.
Samples are loaded between a microscope slide and cover glass and are allowed to equilibrate before observation. Microscopic texture is analyzed and used to determine the phase. For some samples, an AR 2000 rheometer (TA Instruments) is used to measure viscosity at 25° C. to further verify phase behavior.

[2] = Water-soluble herbicide formulation testing (standard dilution test, emulsion stability); format: physicochemical; parameters: key to Emulsion stability, mL separation, 24 h: Tr = trace; conditions: 342 ppm water;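 also: diluted in a 50 mL Nessler cylinder held at 30 °C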
Procedure: Surfactant candidates for water soluble herbicide applications are examined as a replacement for the anionic, nonionic, or anionic/nonionic blend portion and compared to a known industry adjuvant standard for use in paraquat, a water soluble herbicide concentrate formulation. A standard dilution test is conducted whereby the concentrates are diluted in water to determine if solubility is complete.
The cylinder is stoppered and inverted ten times. Solubility is recorded as complete or incomplete. Cylinders are allowed to stand and the amount (in mL) and type of separation are recorded after 30 min., 1 h, 2 h, and 24 h. Results of the solubility testing appear in Table 3 below.
An eight to ten mole alkyl phenol ethoxylate surfactant (0.7 g) is added and vigorously mixed for 30 s. Test sample (0.7 g) is added and mixing resumes for 30 s.
Test sample (0.7 g) is added and vigorously mixed for 30 s. Sodium linear alkylbenzene sulfonate (“NaLAS,” 0.7 g) is added and mixing resumes for 30 s.

[3] = Anionic emulsifier: emulsion stability testing of EW concentrate (modified ASTM E1116-98)
Procedure: Turbidity changes are noted and recorded.
A Mohr pipette is used to feed EW concentrate to each cylinder. Cylinders are stoppered and inverted ten times, then allowed to stand for 0.5, 1, and 24 h while recording stability at each time as type and % separation.
Spontaneity is recorded according to the following criteria: (1) poor: very thin emulsion cloud with major separation of oil droplets; (2) fair: thin emulsion cloud with minor separation of oil droplets; (3) good: thin emulsion cloud reaches the bottom of the cylinder without separation of any type; (4) excellent: thick emulsion cloud reaches the bottom of the cylinder without separation of any type.

[4] = Emulsion polymerization surfactant screen
Procedure: A reaction kettle is charged with sodium bicarbonate (0.50 g), water (225 g), and seed latex (30 g) and the mixture is heated to and held at 83° C. under nitrogen with stirring at 200 rpm. […] Methyl methacrylate (255 g), butyl acrylate (235 g), and methacrylic acid (10 g) are combined in an Erlenmeyer flask and mixed. […] Separately, two other mixtures are prepared: an initiator shot mixture of ammonium persulfate (1.0 g) in water (20 g), and a cofeed mixture of ammonium persulfate (2.70 g), sodium bicarbonate (1.50 g), and water (75 g); the total amount of initiator used is 0.74% based on monomers. The initiator shot is charged to the 83° C. reaction kettle dropwise over 1 min, then held for 10 min. The monomer emulsion is then fed to the kettle at 2.1 mL/min. for 10 min. The feed rate of the monomer emulsion is increased to 4.2 mL/min., and the cofeed mixture is started at 0.37 mL/min. Total addition time is 3 h, during which particle size and temperature are monitored. After addition of the monomer emulsion is complete, a water wash (50 g) is started, and heating at 83° C. continues for 1 h. The product is cooled. The pH is adjusted to 7.5 with dilute ammonium hydroxide solution. A preservative is added, and the mixture is filtered.

[5] = Adjuvant (anionic/nonionic) test sample

Row | pre-emulsion stability [4] | Molecule | Estimated Phase Region: Cubic [1] | Estimated Phase Region: Hexagonal [1] | Estimated Phase Region: Isotropic Clear [1] | Estimated Phase Region: Lamellar [1] | Estimated Phase Region: Solid/gum/paste [1] | Emulsion stability, mL separation, 1 h [2, 5] [mL] | Emulsion stability, mL separation, 24 h [2, 5] | Emulsion stability, mL separation, 1 h ([2]; Anionic test sample) [mL] | Emulsion stability, mL separation, 24 h ([2]; Anionic test sample) [mL] | Emulsion stability, mL separation, 1 h ([2]; Nonionic test sample) [mL] | Emulsion stability, mL separation, 24 h ([2]; Nonionic test sample) | % Separation, 1 h ([3]; 34 ppm water) [%] | % Separation, 24 h ([3]; 34 ppm water) [%] | % Separation, 1 h ([3]; 1000 ppm water) [%] | % Separation, 24 h ([3]; 1000 ppm water) [%] | Estimated Phase Region: Unknown [1] | pre-emulsion stability ([4]; surfactant level in EP 0.50%)
1 |  | 3 Mole Ethoxylated C12 Alcohol, Sodium Sulfate [A12-9] | 60-68 % actives | 31-60 % actives | 0-31 % actives | 68-87 % actives | 87-100 % actives | 0 | 0 mL | 0 | 0 | 0 | 0 mL | 3.3 | 4.2 | 2.1 | 3 |  | 
2 |  | C=CCCCCCCCCOS(=O)(=O)O.N [A10-2] |  | 42-64 % actives |  | 64-80 % actives | 80-100 % actives | 0 | 0 mL | 0 | 0 | 0 | Tr | 3.8 | 4 | 3.1 | 3.8 | 0-42 % actives | 
3 |  | C=CCCCCCCCCOS(=O)(=O)[O-].[Na+] [A10-3] |  | 43-70 % actives | 0-43 % actives | 70-81 % actives | 81-100 % actives | 0 | 0 mL | 0 | 0 | 0 | Tr | 4 | 4 | 3 | 3.1 |  | 
4 |  | CCCCCCCCCCCCOS(=O)(=O)[O-].[Na+] [sat. analog of A12-3, reference compound] |  |  | 0-31 % actives |  | 31-100 % actives |  |  |  |  |  |  |  |  |  |  |  | 
5 |  | CCCCCCCCCCCCOCCOCCOCCOS(=O)(=O)[O-].[Na+] [sat. analog of A12-9, reference compound] |  | 24-60 % actives | 0-24 % actives | 60-78 % actives | 78-100 % actives |  |  |  |  |  |  |  |  |  |  |  | 
6 |  | C12 Alcohol Ammonium Sulfate [A12-2] |  | 33-70 % actives | 0-33 % actives | 70-83 % actives | 83-100 % actives |  |  |  |  |  |  | 4 | 4.2 | 2.5 | 3.2 |  | 
7 |  | C12 Alcohol Sodium Sulfate [A12-3] |  | 38-66 % actives | 0-38 % actives | 66-83 % actives | 83-100 % actives | 0 | Tr | 0 | 0 | 0 | Tr | 4.5 | 5.7 | 3 | 4 |  | stable
8 | stable | calcium alkylbenzenesulfonate [Control 1] |  |  |  |  |  |  |  |  |  |  |  |  |  |  |  |  | 
